Reference: ChEMBL document CHEMBL1121562, “2-Methylanthraquinone derivatives as potential bioreductive alkylating agents” (1980)

Tests used:
EMT6 [1] = assay: Compound is measured for surviving fractions of EMT6 tumor cells treated in culture with (0.50 uM) concentration for 1 hr under aerobic condition.; format: functional; conditions: Mus musculus, EMT6, 1 h; read-out: ED50 (the source's name)
[2] = Ratio of toxicity in areobic conditions to hypoxic condition of EMT6 cells; format: functional
EMT6 [3] = assay: Compound is measured for surviving fractions of EMT6 tumor cells treated in culture with (0.50 uM) concentration for 1 hr under hypoxic condition.; format: functional; conditions: Mus musculus, EMT6, 1 h; read-out: ED50 (the source's name)
EMT6 [4] = assay: Maximum effective concentration against EMT6 tumor cells uncer aerobic conditions; format: functional, cell-based; conditions: Mus musculus
EMT6 [5] = assay: Percentage of EMT6 tumor cells under hypoxic condition were killed when exposed to 10 uM concentration of the compound; format: functional, Mus musculus

## COCc1ccc2c(c1)C(=O)c1ccccc1C2=O
EMT6 [1]
  EC50: 30 µM
[2]
  Ratio: 50
EMT6 [3]
  EC50: 0.6 µM

## O=C1c2ccccc2C(=O)c2cc(CCl)ccc21
EMT6 [1]
  EC50: 0.31 µM
[2]
  Ratio: >26
EMT6 [3]
  EC50: < 0.012 µM

## Cc1ccc2c(c1)C(=O)c1ccccc1C2=O [TECTOQUINONE]
EMT6 [1]
  EC50: 1.7 µM
[2]
  Ratio: 3.2
EMT6 [3]
  EC50: 0.54 µM

## COc1cccc2c1C(=O)c1c(O)c3c(c(O)c1C2=O)C[C@@](O)(C(=O)CO)C[C@@H]3O[C@H]1C[C@H](N)[C@H](O)[C@H](C)O1 [DOXORUBICIN]
EMT6 [1]
  EC50: 0.012 µM
[2]
  Ratio: >120
EMT6 [3]
  EC50: < 0.0001 µM

## CC(=O)OCc1ccc2c(c1)C(=O)c1ccccc1C2=O
EMT6 [1]
  EC50: 3.6 µM
[2]
  Ratio: 0.4
EMT6 [3]
  EC50: 9 µM

## CNC(=O)OCc1ccc2c(c1)C(=O)c1ccccc1C2=O
EMT6 [1]
  EC50: 8.1 µM
EMT6 [4]
  Concentration: 100 µM
[2]
  Ratio: 30
EMT6 [3]
  EC50: 0.27 µM

## O=C1c2ccccc2C(=O)c2cc(CO)ccc21
EMT6 [1]
  EC50: 348 µM
[2]
  Ratio: 139
EMT6 [3]
  EC50: 2.5 µM

## CO[C@@]12[C@H](COC(N)=O)C3=C(C(=O)C(C)=C(N)C3=O)N1C[C@@H]1N[C@@H]12 [MITOMYCIN]
EMT6 [1]
  EC50: 0.7 µM
[2]
  Ratio: 700
EMT6 [3]
  EC50: 0.001 µM

## Cc1ccc(S(=O)(=O)OCc2ccc3c(c2)C(=O)c2ccccc2C3=O)cc1
EMT6 [1]
  EC50: > 1000 µM
EMT6 [5]
  Inhibition: 50%
[2]
  Ratio: >111
EMT6 [3]
  EC50: 9 µM

## CS(=O)(=O)OCc1ccc2c(c1)C(=O)c1ccccc1C2=O
EMT6 [1]
  EC50: 180 µM
[2]
  Ratio: 2.6
EMT6 [3]
  EC50: 69.6 µM
